Measurements from patent US20240358773A1, “Parabacteroides Goldsteinii to Treat or Prevent Inflammatory and AutoImmune Diseases” (Joslin Diabetes Center, priority 2023, published 2024).

How the values were obtained:
[1] = test system: fusion of autophagosomes with lysosomes; experiment: Inhibition of autophagosome-lysosome fusion in EV-treated BMDCs, IL-10
[2] = test system: colonic lamina propria (cLP) cells; experiment: A2a blockade in antibiotic-pretreated mice given live or killed ASF519, flow cytometry of colonic lamina propria cells; type: in vivo, mouse; settings: daily i.p. injection
class III PI3K = class III PI3K (Mus musculus, UniProt Q6PF93); experiment: Inhibition of autophagosome formation in EV-treated BMDCs, IL-10
Sequence of class III PI3K (Q6PF93 whole entry): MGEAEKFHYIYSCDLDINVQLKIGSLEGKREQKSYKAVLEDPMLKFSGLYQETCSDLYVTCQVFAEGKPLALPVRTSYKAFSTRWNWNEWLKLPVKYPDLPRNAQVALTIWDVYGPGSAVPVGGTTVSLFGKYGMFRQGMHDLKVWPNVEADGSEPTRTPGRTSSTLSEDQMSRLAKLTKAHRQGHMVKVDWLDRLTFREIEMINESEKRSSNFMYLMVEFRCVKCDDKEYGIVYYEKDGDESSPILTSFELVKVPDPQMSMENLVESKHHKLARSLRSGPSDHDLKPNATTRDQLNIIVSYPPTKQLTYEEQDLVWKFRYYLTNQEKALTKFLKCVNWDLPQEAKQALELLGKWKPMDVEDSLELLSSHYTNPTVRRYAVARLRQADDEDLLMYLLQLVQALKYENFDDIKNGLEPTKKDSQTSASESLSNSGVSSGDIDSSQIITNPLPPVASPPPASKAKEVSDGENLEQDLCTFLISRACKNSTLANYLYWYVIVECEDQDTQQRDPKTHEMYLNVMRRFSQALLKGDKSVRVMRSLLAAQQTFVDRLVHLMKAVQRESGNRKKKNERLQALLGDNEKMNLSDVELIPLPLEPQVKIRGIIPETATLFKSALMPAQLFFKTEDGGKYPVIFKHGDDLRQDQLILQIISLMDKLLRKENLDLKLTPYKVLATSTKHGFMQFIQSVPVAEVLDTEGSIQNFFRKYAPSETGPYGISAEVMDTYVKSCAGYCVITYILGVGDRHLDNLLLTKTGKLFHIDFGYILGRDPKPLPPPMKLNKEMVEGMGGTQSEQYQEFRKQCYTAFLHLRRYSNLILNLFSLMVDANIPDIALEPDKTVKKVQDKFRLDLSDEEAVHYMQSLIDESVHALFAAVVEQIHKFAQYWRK
Sequence of class III PI3K (Q8VD65 whole entry partner): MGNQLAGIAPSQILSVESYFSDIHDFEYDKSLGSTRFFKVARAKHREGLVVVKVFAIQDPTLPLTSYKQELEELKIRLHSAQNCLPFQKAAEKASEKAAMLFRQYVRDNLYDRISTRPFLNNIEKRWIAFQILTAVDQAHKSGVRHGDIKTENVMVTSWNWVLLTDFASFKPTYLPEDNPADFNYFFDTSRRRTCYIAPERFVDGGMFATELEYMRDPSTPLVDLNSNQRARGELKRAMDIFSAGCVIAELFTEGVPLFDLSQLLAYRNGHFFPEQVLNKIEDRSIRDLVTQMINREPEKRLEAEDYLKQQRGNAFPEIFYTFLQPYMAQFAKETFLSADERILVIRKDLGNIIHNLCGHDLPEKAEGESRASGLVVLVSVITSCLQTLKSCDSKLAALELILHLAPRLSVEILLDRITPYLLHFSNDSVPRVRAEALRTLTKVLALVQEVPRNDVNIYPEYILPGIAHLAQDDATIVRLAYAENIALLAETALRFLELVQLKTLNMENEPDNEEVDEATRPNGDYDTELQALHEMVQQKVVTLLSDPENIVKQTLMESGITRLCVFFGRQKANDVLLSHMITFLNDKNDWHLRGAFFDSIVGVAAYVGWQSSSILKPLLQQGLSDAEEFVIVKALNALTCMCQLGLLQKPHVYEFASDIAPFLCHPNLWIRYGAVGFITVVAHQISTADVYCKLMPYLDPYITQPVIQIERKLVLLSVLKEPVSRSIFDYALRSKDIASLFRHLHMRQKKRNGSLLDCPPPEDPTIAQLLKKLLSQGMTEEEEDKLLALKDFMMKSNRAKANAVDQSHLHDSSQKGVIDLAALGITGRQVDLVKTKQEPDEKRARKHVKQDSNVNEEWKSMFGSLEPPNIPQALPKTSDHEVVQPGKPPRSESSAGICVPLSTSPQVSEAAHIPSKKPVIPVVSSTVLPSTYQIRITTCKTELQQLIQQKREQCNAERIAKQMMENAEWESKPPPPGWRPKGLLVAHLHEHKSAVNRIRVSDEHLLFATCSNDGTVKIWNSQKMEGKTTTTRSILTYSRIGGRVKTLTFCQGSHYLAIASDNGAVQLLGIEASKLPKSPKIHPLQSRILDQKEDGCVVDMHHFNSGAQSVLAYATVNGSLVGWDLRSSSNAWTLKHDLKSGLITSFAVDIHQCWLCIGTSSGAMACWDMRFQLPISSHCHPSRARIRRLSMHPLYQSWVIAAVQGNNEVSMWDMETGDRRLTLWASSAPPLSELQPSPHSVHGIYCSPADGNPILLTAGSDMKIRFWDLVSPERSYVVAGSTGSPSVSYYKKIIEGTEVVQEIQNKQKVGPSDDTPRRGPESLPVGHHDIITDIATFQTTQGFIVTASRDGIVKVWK
Sequence of class III PI3K (O88597 whole entry partner): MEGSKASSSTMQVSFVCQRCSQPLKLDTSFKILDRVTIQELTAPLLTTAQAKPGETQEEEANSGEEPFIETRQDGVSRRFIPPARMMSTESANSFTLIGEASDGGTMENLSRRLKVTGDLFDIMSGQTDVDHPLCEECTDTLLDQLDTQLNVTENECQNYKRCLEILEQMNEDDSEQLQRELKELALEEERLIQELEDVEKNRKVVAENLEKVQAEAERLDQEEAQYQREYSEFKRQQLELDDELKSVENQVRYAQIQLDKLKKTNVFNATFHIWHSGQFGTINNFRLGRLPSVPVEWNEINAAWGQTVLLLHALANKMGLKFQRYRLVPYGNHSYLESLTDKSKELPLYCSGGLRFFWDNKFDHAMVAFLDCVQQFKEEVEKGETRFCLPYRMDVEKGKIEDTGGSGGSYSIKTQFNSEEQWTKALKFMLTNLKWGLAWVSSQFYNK
Sequence of class III PI3K (Q8CDJ3 whole entry partner): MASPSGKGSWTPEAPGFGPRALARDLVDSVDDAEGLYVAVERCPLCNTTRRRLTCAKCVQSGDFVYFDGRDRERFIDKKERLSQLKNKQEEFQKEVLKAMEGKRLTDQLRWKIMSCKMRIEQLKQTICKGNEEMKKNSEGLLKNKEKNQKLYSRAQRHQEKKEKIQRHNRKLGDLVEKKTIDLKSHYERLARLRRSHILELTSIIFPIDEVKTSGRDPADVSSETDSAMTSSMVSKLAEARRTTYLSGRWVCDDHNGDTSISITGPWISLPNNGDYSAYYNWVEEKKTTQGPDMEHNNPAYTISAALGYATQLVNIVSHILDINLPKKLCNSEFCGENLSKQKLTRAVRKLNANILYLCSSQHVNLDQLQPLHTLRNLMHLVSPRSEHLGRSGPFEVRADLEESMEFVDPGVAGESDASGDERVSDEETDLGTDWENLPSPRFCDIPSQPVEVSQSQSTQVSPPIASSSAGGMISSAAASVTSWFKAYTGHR

## CCN(CCO)CCCC(C)Nc1ccnc2cc(Cl)ccc12 (stereo not shown) [hydroxychloroquine]
[1]
  effect on IL-10 induction of EV-treated BMDCs: efficiently blocked IL-10 induction

## Nc1nc(NCCc2ccc(O)cc2)nc2nc(-c3ccco3)nn12 [ZM241385]
[2]
  effect of A2a antagonist on ASF519-induced IL-10 producing DCs: significantly decreased
  effect of A2a blockage on ASF519-decreased B cells and CD11b+ CD45+ cells: restored

## Cn1cnc(N)c2ncnc1-2 [3-methyladenine]
Class III PI3K
  effect on IL-10 induction of EV-treated BMDCs: efficiently blocked IL-10 induction
